Results taken from paper PMC12567041 (Pharmaceutics, 2025).

Assays:
[1] = cited from earlier work
[2] = in vitro; conditions: dog, MDCK
[3] = target: T1, UGT1A4 (Homo sapiens, UniProt P22310); test: Inhibition of recombinant UGT1A4 by imatinib; format: in vitro ADME
T1 sequence (P22310 29-534): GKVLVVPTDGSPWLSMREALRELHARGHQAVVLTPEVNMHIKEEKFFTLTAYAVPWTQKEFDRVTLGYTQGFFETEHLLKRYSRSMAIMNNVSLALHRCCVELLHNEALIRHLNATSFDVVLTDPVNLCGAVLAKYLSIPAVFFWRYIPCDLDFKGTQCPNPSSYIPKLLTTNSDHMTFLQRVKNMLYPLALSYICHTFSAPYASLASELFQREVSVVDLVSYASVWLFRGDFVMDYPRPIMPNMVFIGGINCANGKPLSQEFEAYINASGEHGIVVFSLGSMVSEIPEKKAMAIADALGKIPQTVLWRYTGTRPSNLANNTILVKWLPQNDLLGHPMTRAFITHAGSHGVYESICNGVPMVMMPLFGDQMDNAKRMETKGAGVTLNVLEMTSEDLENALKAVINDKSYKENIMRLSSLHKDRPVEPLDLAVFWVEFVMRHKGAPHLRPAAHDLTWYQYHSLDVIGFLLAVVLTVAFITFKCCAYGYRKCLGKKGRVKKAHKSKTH

[4] = In vitro stability study in human feces; format: in vitro ADME; conditions: after 20 h
[5] = cited from earlier work; remark: listed apart in the source

For `COc1ccc2[nH]c([S+]([O-])Cc3ncc(C)c(OC)c3C)nc2c1` (centres unmarked) [Omeprazole, omeprazole], the “fm by CYP2C19” value ([1]; CYP2C19 normal metabolizers) is listed as “≈ 0.9” and the “fm by CYP3A” value ([1]; probe substrate property) is listed as “≈ 0.1”.
With `CC(C)NCC(O)COc1cccc2ccccc12` (centres unmarked) [propranolol, reference compound] the Papp A→B [2] was 36 ×10⁻⁶ cm/s.
In the case of `Cn1c(=O)c2c(ncn2C)n(C)c1=O` [Caffeine, caffeine], the “fm by CYP1A2” value ([1]; probe substrate property) is given as “≈ 0.9”.
`Cc1ccc(NC(=O)c2ccc(CN3CCN(C)CC3)cc2)cc1Nc1nccc(-c2cccnc2)n1` [imatinib] gave an IC50 [3] of 15 µM.
For `O=C(Nc1ccc(OC(F)(F)Cl)cc1)c1cnc(N2CC[C@@H](O[C@@H]3O[C@H](C(=O)O)[C@@H](O)[C@H](O)[C@H]3O)C2)c(-c2ccn[nH]2)c1` [M30.5], the “stability in human feces” value [4] is listed as “almost completely hydrolyzed back to asciminib”, the “share of the total AUC” value ([5]; circulating metabolite) is listed as 4.93% and the “share of the administered dose” value ([5]; urinary metabolite) is listed as 5.4–8.4%.
For `Cc1nnc(C(=O)NC(C)(C)c2nc(C(=O)NCc3ccc(F)cc3)c(O)c(=O)n2C)o1` [Raltegravir, raltegravir], the “share eliminated by renal clearance” value ([1]; assumption of the raltegravir model) is listed as 9%.
`C[C@H]1[C@H](NC(=O)/C(=N\OC(C)(C)C(=O)O)c2csc(N)n2)C(=O)N1S(=O)(=O)O` [aztreonam, reference compound] showed a Papp A→B [2] of 0.24 ×10⁻⁶ cm/s.
For `CN(CCOc1ccc(CC2SC(=O)NC2=O)cc1)c1ccccn1` (centres unmarked) [rosiglitazone], the “fm by CYP2C8” value ([1]; probe substrate property) is listed as “≈ 0.6” and the “fm by CYP2C9” value ([1]; probe substrate property) is listed as “≈ 0.3”.
In the case of `CCOc1cc(CC(=O)N[C@@H](CC(C)C)c2ccccc2N2CCCCC2)ccc1C(=O)O` [Repaglinide, repaglinide], the “fm by CYP2C8” value ([1]; probe substrate property) is given as “≈ 0.7” and the “fm by CYP3A” value ([1]; probe substrate property) is given as “≈ 0.3”.
